The text below walks through data of US9017643B2, “Particles comprising a releasable dopant therein” (Australian Nuclear Science and Technology Organisation, priority 2005, dated 2015).

One series is described as follows: Release into ethanol. In kind it is physicochemical. To be noted: for Encapsulated dye released: ethanol. The method, then: (§1) The sample was suspended in 50/50 v/v ethanol/water (10 mL) with stirring. At each time point, the sample was centrifuged (10,000 rpm, 10 minutes) and the supernatant removed. Fresh solvent was then added and the solid resuspended. In comparison, the release of dye from a similar sample into 100% ethanol solution is very rapid, with about 40% of the dye released after several minutes.
(§2) The sample was suspended in 50/50 v/v ethanol/water (10 mL) with stirring. At each time point, the sample was centrifuged (10,000 rpm, 10 minutes) and the supernatant removed. Fresh solvent was then added and the solid resuspended. In contrast to the slow release into ethanol/water, the release into ethanol is very rapid, with approximately 70% of the encapsulated dye released within one hour.
The samples (53.5 and 49.2 mg respectively) were suspended in ethanol (100 mL) with stirring. At each time point, 1.5 mL was extracted from both samples and centrifuged to isolate the solid, which was then returned to the solution with 1 mL of fresh ethanol. The extracted 1.5 mL was analysed by UV/Vis (absorbance at 536 nm), to determine the concentration of sudan red dye released into the supernatant. The second sample released dye more quickly than the first, but by 100 minutes, both samples had released >90% of the encapsulated sudan red dye.

Series [1] can be described thus: Release into sodium hydroxide solution at pH=12. Conditions: Example 3, after 27 days, both samples (phenylsiloxane and vinylsiloxane). In kind it is physicochemical. The method, then:
The rate of release of diuron into sodium hydroxide solution at pH=12 was measured over a period of one month. Analysing the extent of release is somewhat problematic due to the low solubility of diuron in water. In order to determine the release characteristics, diuron-doped particles (about […]) were suspended in NaOH solution (0.01 mol dm^−3, 50 mL) and stirred. At one-week intervals, the solution was centrifuged and the supernatant removed. The diuron-doped particles were then resuspended in a fresh solution of NaOH (0.01 mol dm^−3, 50 mL) and stirred. The removed supernatant was shaken with octanol (10 mL) in a separating flask to extract dissolved diuron. This was repeated twice, and the resulting approximately 30 mL organic fraction was reserved for diuron analysis by HPLC. The amount of diuron released after 27 days was about 5% (of the total encapsulated) for both samples. The amount released was less than expected compared with the dissolution results at pH=12. This could reflect an incomplete extraction of diuron from the aqueous phase during the process of shaking with octanol.

Series [2] in a line: Integrity of retinol after encapsulation (UV/Visible spectra, leaching into ethanol). Format: physicochemical. From the text: The UV/Visible spectra of the both retinol-doped and undoped phenylsiloxane particles dispersed in PTFE powder (10 wt %), were collected using a diffuse reflectance accessory. […] The bandshift from 325 nm in ethanol solution to 335 nm in the solid is due to difference of environment experienced by the retinol molecule. […] This is likely to be due to exposure to low pH (=1.0) during the hydrolysis of TMOS.

Series [3] can be described thus: Release into 50/50 v/v ethanol/water. Format: physicochemical. To be noted: phenylsiloxane particles. The method, then:
Release of retinol from the particles into 50:50 (v/v) ethanol:water solution was measured over a period of 11 days. Due to decomposition of retinol released into the solution, the supernatant was refreshed at each time point, and the release measured using UV/Vis spectroscopy (peak at 325 nm). Approximately 11% of the encapsulated retinol was released after one day, followed by slower release thereafter.
as §1, §2

For series [4] the following is noted: silica shell capsules loaded by post impregnation; after four hours; cited from earlier work.

As to `CCCCNc1ccc(NCCCC)c2c1C(=O)c1ccccc1C2=O` [Solvent blue 35], the Dye released result in the series “Release into ethanol” (similar sample to Example 5, 100% ethanol, after several minutes) is listed as “about 40%”.

As to `CN(C)C(=O)Nc1ccc(Cl)c(Cl)c1` [diuron], the “Amount released (of the total encapsulated)” value in series [1] is “about 5%”.

With `C=C(C)[C@H]1CC=C(C)CC1` [limonene], the “Weight removed from the solid on leaching in ethanol” value in the series “Release into ethanol” (15 ml limonene: 30 ml PTMS, HPLC) is listed as “about 3%”.

Consider `CC1=C(/C=C/C(C)=C/C=C/C(C)=C/CO)C(C)(C)CCC1` [retinol], for which the Integrity after encapsulation entry in series [2] (phenylsiloxane particles, absorption peak at 325 nm on release into ethanol) is on record as “has not been damaged”; in series [2] (silica particles made by double emulsion process with TMOS, no peak at 325 nm), “has been degraded”. Moreover, the Encapsulated dopant released entry in series [3] (Example 1, 50:50 (v/v) ethanol:water, after one day) is reported as “Approximately 11%”.

For `C1=Cc2nc1c(-c1ccccc1)c1ccc([nH]1)c(-c1ccccc1)c1nc(c(-c3ccccc3)c3ccc([nH]3)c2-c2ccccc2)C=C1` [tetraphenyl porphyrin], in series [4], the “Porphyrin leached from the particles” value is listed as 60%.

Take Sudan red: the “Release (in words)” value in series [3] (Example 6, 50/50 v/v ethanol/water) was “slow release”. For the same compound, the Encapsulated dye released result is given as “approximately 70%” in the series “Release into ethanol” (Example 6, phenylsiloxane particles, within one hour) and more than 90% in the series “Release into ethanol” (Example 7, vinylsiloxane particles, by 100 minutes, both samples).
